Assay results: the supplement of paper PMC12076712
Values belong to the compound of their own block, whether it stands above or below them.

Legend:
Assay in all cases: pIC50, kinobeads binding competition
BRSK2 = biological target: T1, BRSK2 (UniProt Q8IWQ3)
T1 sequence (whole entry): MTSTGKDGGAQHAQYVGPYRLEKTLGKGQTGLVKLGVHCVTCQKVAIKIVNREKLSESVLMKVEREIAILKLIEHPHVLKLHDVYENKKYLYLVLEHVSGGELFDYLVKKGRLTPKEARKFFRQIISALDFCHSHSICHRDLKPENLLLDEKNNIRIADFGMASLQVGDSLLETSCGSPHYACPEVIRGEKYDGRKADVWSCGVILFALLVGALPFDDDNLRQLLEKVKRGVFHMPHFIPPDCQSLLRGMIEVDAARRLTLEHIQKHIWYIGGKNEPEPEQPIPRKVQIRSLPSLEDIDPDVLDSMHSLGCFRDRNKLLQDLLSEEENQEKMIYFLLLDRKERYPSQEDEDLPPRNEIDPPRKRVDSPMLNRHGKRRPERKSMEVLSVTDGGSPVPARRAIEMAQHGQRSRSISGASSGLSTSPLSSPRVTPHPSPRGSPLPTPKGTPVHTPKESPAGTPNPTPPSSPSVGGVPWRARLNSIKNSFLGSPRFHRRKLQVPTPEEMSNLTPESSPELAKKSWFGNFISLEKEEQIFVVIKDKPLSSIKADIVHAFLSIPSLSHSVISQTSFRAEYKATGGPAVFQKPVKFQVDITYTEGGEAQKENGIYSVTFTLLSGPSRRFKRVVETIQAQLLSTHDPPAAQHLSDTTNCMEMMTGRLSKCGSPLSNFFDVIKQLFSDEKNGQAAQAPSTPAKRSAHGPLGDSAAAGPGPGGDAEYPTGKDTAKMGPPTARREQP
Outline: (§1)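 Fold changes relative to vehicle, from biological duplicates, were fitted with logistic dose-response models in the R drc package to give pIC50. These fold changes came from TMT10 LC-MS/MS quantification of digested Kinobeads-bound proteins. Compound was applied at nine concentrations (top 30 μM) either to live Jurkat cells in 1:4 steps for 60 min at 37 °C before lysis, or to Jurkat lysate or a 1:1:1:1 HEK293/K-562/HepG2/placenta lysate mix in 1:5 steps for 60 min at 4 °C.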

EIF2AK3 = biological target: T2, EIF2AK3 (UniProt Q9NZJ5); settings: cell material: Lysate mix
T2 sequence (whole entry): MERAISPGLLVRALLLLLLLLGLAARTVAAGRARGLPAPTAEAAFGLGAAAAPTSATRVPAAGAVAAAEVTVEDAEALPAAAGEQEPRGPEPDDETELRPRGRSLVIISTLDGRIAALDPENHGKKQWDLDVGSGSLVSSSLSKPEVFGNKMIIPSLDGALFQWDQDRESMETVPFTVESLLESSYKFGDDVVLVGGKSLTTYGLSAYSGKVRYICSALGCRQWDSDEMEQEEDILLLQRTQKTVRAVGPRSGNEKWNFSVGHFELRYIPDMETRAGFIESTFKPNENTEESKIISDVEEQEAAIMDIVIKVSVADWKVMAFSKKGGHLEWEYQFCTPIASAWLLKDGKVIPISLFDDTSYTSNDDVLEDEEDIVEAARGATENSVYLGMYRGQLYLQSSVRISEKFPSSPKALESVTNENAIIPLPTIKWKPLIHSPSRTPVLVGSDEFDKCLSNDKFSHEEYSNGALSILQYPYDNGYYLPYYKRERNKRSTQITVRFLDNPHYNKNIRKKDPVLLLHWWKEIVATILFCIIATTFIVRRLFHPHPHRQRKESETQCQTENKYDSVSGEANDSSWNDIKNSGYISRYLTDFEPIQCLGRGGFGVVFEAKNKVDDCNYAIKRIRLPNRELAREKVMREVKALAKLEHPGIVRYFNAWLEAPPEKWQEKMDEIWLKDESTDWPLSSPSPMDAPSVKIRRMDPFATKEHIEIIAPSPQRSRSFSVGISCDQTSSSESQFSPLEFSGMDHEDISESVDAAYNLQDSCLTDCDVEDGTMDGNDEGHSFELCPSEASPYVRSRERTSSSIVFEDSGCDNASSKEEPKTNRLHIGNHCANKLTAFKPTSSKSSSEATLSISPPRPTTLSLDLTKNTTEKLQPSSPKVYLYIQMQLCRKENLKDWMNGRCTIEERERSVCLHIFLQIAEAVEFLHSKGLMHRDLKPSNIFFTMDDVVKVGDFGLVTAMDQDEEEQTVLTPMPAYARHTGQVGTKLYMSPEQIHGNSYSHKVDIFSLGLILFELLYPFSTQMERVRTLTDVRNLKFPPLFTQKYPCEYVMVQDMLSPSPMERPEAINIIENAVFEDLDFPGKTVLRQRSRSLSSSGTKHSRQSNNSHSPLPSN
Outline: as §1

NEK3 = biological target: T3, NEK3 (UniProt P51956)
T3 sequence (whole entry): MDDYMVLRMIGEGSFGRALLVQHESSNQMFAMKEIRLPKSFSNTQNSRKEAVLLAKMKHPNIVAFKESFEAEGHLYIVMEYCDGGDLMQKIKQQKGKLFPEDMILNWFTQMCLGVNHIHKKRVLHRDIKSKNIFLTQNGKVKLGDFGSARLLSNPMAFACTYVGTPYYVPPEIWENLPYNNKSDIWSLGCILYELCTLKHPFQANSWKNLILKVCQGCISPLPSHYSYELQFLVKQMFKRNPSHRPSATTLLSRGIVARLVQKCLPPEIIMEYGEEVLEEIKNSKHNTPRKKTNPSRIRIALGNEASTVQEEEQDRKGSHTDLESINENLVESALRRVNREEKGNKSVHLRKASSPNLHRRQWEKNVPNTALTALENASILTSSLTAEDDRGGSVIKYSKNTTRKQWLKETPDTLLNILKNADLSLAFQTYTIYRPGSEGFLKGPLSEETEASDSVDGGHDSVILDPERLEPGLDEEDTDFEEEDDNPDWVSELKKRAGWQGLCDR
Outline: as §1

UniProt P04629 = settings: cell material: Lysate mix
Chain of UniProt P04629 (P04629 whole entry, looked up): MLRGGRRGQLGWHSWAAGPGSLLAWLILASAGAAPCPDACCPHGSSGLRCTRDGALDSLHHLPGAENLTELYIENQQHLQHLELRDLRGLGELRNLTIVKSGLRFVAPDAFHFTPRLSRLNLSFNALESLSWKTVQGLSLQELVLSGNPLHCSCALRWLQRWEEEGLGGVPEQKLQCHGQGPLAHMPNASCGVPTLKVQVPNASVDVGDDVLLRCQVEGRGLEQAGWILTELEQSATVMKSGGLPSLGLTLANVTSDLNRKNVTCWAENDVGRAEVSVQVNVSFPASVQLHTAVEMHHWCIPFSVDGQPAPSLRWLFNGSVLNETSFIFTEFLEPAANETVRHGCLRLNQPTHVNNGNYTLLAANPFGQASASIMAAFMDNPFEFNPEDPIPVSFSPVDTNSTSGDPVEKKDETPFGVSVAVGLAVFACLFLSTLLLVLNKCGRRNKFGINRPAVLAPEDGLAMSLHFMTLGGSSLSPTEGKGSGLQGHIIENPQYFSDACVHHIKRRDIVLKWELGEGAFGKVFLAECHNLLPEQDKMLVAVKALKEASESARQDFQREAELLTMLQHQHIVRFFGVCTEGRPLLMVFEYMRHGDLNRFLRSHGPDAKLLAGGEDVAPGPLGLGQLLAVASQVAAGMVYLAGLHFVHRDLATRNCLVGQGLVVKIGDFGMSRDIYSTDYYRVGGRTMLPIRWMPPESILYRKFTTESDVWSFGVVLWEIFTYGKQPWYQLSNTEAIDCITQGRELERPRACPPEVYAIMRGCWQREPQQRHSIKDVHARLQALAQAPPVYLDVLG
Outline: as §1

UniProt P49674 = biological target: UniProt P49674
Chain of UniProt P49674 (P49674 whole entry, looked up): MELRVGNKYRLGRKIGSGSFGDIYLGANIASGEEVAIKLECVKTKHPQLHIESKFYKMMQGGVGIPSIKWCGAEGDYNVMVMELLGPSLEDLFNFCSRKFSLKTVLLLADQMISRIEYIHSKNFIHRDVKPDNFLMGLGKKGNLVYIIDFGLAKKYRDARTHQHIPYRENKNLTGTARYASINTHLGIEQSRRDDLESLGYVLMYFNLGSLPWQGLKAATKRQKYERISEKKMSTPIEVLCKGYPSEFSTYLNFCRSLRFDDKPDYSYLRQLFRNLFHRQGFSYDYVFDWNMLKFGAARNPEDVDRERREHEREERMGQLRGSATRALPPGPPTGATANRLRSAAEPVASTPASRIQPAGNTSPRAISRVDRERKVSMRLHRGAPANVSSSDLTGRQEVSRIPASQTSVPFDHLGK
Outline: as §1

Structure (SMILES): O=C(NCCNC(=O)c1cc(Nc2cc(C3CC3)[nH]n2)nc(N2CCN(Cc3ccc(S(=O)(=O)F)cc3)CC2)n1)OC1CC/C=C/CCC1 (centres undefined)
pIC50 (BRSK2; cell material: Jurkat cells): 5.93
pIC50 (BRSK2; cell material: Jurkat lysate): < 4.52
pIC50 (BRSK2; cell material: Lysate mix): < 4.52
pIC50 (EIF2AK3): < 4.52
pIC50 (NEK3; cell material: Jurkat cells): 5.56
pIC50 (NEK3; cell material: Lysate mix): < 4.52
pIC50 (UniProt P04629): < 4.52
pIC50 (UniProt P49674; cell material: Jurkat lysate): < 4.52
pIC50 (UniProt P49674; cell material: Lysate mix): < 4.52

Structure (SMILES): CCNC(=O)c1cc(Nc2cc(C)[nH]n2)nc(N2CCN(Cc3ccc(S(=O)(=O)F)cc3)CC2)n1
pIC50 (BRSK2; cell material: Lysate mix): < 4.52
pIC50 (EIF2AK3): < 4.52
pIC50 (NEK3; cell material: Lysate mix): < 4.52
pIC50 (UniProt P04629): < 4.52
pIC50 (UniProt P49674; cell material: Lysate mix): < 4.52

Structure (SMILES): C#CCNC(=O)c1cc(Nc2cc(C3CC3)[nH]n2)nc(N2CCN(Cc3ccc(S(=O)(=O)F)cc3)CC2)n1
pIC50 (BRSK2; cell material: Jurkat cells): 6.54
pIC50 (BRSK2; cell material: Jurkat lysate): < 4.52
pIC50 (BRSK2; cell material: Lysate mix): 4.84
pIC50 (EIF2AK3): < 4.52
pIC50 (NEK3; cell material: Jurkat lysate): 4.66
pIC50 (NEK3; cell material: Lysate mix): 5.7
pIC50 (UniProt P04629): 5.39
pIC50 (UniProt P49674; cell material: Jurkat cells): 5.4
pIC50 (UniProt P49674; cell material: Jurkat lysate): < 4.52
pIC50 (UniProt P49674; cell material: Lysate mix): < 4.52

Structure (SMILES): C#CCNC(=O)c1cc(Nc2cc(C)[nH]n2)nc(N2CCN(Cc3ccc(S(=O)(=O)F)cc3)CC2)n1
pIC50 (BRSK2; cell material: Lysate mix): < 4.52
pIC50 (EIF2AK3): < 4.52
pIC50 (NEK3; cell material: Lysate mix): < 4.52
pIC50 (UniProt P04629): < 4.52
pIC50 (UniProt P49674; cell material: Lysate mix): < 4.52

Second part, the compound after the results:

pIC50 (BRSK2; cell material: Lysate mix): < 4.52
pIC50 (EIF2AK3): < 4.52
pIC50 (NEK3; cell material: Lysate mix): < 4.52
pIC50 (UniProt P04629): < 4.52
pIC50 (UniProt P49674; cell material: Lysate mix): < 4.52
Structure (SMILES): Cc1cc(Nc2cc(C(=O)NCCNC(=O)OC3CC/C=C/CCC3)nc(N3CCN(Cc4ccc(S(=O)(=O)F)cc4)CC3)n2)n[nH]1 (centres undefined)

pIC50 (BRSK2; cell material: Lysate mix): < 4.52
pIC50 (EIF2AK3): < 4.52
pIC50 (NEK3; cell material: Lysate mix): 5.46
pIC50 (UniProt P04629): 5.58
pIC50 (UniProt P49674; cell material: Lysate mix): < 4.52
Structure (SMILES): CCNC(=O)c1cc(Nc2cc(C3CC3)[nH]n2)nc(N2CCN(Cc3ccc(S(=O)(=O)F)cc3)CC2)n1
